Like-named read-outs stand apart in the source and are kept apart here.
Columns and labels:
[1] = resin
[2] = disulfide bond; 44-membered ring; resin; 3 steps
[3] = disulfide bond, 20-membered ring
[4] = crosslinker bond, 30-membered ring

## H-CYFQNCPRG-NH2
[1]; [3]
  ring closure, conversion: 95%

## H-KCNTATCATQRLANFLVHSSNFGPILPPTNVGSNTY-NH2
[1]; [3]
  ring closure, conversion: 99%

## H-VRCPGAAHHADSLC-NH2
[1]; disulfide bond, 38-membered ring
  ring closure, conversion: 99%

## H-ACYNEFGCEDFYDICA-NH2
[1]; [4]
  ring closure, conversion: 99%

## H-ACREGFLRCLHRPTVCNG-H2
[1]; crosslinker bond, 31-membered ring
  ring closure, conversion: 99%

## H-VRVPGCAHCADSLY-NH2
[1]; crosslinker bond, 19-membered ring
  ring closure, conversion: 99%

## H-ACSWPARCLHQDLCA-NH2
[1]; [4]
  ring closure, conversion: 99%

## H-CRVPGDAHHADSLC-NH2
[1]; crosslinker bond, 49-membered ring
  ring closure, conversion: 99%
[1]; disulfide bond, 44-membered ring
  ring closure, conversion: 22%
[2]
  ring closure, crude yield: 22%

Reference: patent US12473328
